Reference: patent US8030300B2, “Ligands for nicotinic acetylcholine receptors, and methods of making and using them” (priority 2003, dated 2011)
Read-outs that look alike come from different tables or passages of the source.

What was measured:
Assay in all cases: biochemical
Format in all cases: binding
α2β2 nAChR subtype = target: T1, α2β2 nAChR subtype (Rattus norvegicus, UniProt P12389+P12390)
T1 construct: expressed in transfected cells
Description: (§1) In order to assess the steric and hydropathic effects of the C-5 substituents of the pyridine on the binding affinity and subtype-selectivity at neuronal nicotinic acetylcholine receptors. […] The binding affinity ratios for a ligand, calculated from its affinities at an α subunit paired with either the β2 osubunit or the β4 subunit, represents a measure of the selectivity of that ligand with regard to the β subunits.

α2β4 nAChR subtype = target: T2, α2β4 nAChR subtype (Rattus norvegicus, UniProt P12389+P12392)
T2 construct: expressed in transfected cells
Description: as §1

α3β2 nAChR subtype = target: T3, α3β2 nAChR subtype (Rattus norvegicus, UniProt P04757+P12390)
T3 construct: expressed in transfected cells
Description: as §1

α3β4 nAChR subtype = target: T4, α3β4 nAChR subtype (Rattus norvegicus, UniProt P04757+P12392)
T4 construct: expressed in transfected cells
Description: as §1

α4β2 nAChR subtype = target: T5, α4β2 nAChR subtype (Rattus norvegicus, UniProt P09483+P12390)
T5 construct: expressed in transfected cells
Description: as §1

α4β4 nAChR subtype = target: T6, α4β4 nAChR subtype (Rattus norvegicus, UniProt P09483+P12392)
T6 construct: expressed in transfected cells
Description: as §1

[1] = target: T7, receptors in rat forebrain (mainly α4β2) (Rattus norvegicus, UniProt P09483+P12390)
T7 construct: from tissue; host or cells: rat forebrain homogenate
Description: as §1
In Vitro Inhibition of ^3H-Epibatidin Binding
The high affinity binding site for ^3H-epibatidin is most certainly binding to the α4β2 subtype of nicotinic receptors. The identity of the low affinity site is still believed to be unknown.
Tissue preparation: Preparations may be performed at 0-4° C. unless otherwise indicated. […] The tissue suspension may then be centrifuged at 27,000×g for 10 min. The supernatant is then discarded and the pellet may then be washed three times by centrifugation at 27,000×g for 10 min in 20 mL fresh buffer, and the final pellet may be resuspended in fresh buffer (400 mL per g of original tissue) and used for binding assays.
Assay: Aliquots of 2.0 mL homogenate may be added to 0.100 mL of test solution and 0.100 mL of ^3H-epibatidin (0.3 nM, final concentration), mixed and incubated for 60 min at room temperature. […] The amount of radioactivity on the filters may be determined by conventional liquid scintillation counting. Specific binding is total binding minus non-specific binding.

[2] = Table 5, rat nAChR subtypes, read-out: Ki α4β4
[3] = Ki α2β2, Table 5, rat nAChR subtypes
[4] = Ki α2β4, Table 5, rat nAChR subtypes
[5] = Ki α3β2, Table 5, rat nAChR subtypes
[6] = Ki α3β4, Table 5, rat nAChR subtypes
[7] = Ki α4β2, Table 5, rat nAChR subtypes
[8] = Ki α4β4, Table 5, rat nAChR subtypes
[9] = Ki α4β2*, Table 5, *Rat forebrain, mainly α4β2
[10] = Table 3, mean ± SEM of 3 (nicotine, 1: 3 to 6) independent measurements, read-out: Ki α2β4
[11] = Table 3, mean ± SEM of 3 (nicotine, 1: 3 to 6) independent measurements, read-out: Ki α3β2
[12] = Table 3, mean ± SEM of 3 (nicotine, 1: 3 to 6) independent measurements, read-out: Ki α3β4
[13] = Table 3, mean ± SEM of 3 (nicotine, 1: 3 to 6) independent measurements, read-out: Ki α4β2
[14] = Table 3, mean ± SEM of 3 (nicotine, 1: 3 to 6) independent measurements, read-out: Ki α4β4

T4 sequence (P04757 26-499): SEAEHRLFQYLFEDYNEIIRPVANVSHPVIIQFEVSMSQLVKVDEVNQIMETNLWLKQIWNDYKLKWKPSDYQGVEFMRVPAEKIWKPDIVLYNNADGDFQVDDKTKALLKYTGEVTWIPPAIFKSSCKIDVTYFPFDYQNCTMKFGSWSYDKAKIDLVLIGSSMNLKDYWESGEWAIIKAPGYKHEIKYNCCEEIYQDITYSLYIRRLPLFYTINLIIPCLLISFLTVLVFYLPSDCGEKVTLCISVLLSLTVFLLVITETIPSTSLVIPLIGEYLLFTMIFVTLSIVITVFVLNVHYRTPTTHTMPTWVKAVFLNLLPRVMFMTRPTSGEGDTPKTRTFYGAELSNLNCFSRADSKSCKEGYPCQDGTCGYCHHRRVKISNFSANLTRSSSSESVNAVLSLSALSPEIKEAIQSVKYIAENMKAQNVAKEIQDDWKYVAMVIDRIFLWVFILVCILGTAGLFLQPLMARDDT
T4 sequence (P12392 21-495): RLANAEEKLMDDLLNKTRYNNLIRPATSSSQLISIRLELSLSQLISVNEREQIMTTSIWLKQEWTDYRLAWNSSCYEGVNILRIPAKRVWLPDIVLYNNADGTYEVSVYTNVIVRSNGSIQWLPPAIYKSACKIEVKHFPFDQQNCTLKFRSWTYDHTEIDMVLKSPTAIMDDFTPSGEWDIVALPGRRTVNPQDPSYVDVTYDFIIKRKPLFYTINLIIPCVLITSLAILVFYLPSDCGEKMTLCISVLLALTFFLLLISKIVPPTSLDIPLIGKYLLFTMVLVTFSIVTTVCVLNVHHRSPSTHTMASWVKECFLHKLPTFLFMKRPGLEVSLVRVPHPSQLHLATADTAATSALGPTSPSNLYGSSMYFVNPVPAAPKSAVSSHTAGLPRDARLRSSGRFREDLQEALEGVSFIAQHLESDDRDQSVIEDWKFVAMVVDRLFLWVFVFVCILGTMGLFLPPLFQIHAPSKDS
T6 sequence (P12392 21-495): as above
T6 sequence (P09483 31-630): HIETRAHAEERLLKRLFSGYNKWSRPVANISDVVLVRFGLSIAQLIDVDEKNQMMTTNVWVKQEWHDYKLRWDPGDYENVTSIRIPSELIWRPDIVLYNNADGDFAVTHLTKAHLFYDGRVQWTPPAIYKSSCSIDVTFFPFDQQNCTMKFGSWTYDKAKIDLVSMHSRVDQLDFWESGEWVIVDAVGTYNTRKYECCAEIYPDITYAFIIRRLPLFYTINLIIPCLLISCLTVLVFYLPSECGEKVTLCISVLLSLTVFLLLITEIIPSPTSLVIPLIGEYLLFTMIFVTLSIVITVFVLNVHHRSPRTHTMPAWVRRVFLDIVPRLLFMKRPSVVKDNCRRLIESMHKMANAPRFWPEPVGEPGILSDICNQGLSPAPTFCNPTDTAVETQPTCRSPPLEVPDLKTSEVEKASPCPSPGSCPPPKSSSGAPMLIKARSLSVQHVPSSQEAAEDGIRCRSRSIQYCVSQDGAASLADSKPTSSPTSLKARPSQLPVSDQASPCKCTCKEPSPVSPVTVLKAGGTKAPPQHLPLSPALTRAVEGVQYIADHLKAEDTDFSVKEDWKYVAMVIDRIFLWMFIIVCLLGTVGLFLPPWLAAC
T7 sequence (P09483 31-630): as above
T7 sequence (P12390 25-500): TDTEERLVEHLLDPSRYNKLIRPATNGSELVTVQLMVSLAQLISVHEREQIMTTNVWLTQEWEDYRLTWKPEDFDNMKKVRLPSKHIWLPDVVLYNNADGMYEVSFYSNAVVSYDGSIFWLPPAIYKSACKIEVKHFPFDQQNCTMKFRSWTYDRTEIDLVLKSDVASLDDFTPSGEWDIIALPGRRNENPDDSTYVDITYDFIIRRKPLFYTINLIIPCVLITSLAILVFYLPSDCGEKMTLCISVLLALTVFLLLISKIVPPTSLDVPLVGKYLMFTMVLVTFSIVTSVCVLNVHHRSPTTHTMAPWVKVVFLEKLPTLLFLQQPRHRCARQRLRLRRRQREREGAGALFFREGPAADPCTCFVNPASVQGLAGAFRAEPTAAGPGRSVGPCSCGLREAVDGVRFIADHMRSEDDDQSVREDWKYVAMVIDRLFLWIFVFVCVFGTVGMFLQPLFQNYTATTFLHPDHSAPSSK
T5 sequence (P12390 25-500): as above
T5 sequence (P09483 31-630): as the sequence (P09483 31-630) above
T1 sequence (P12390 25-500): as the sequence (P12390 25-500) above
T1 sequence (P12389 28-511): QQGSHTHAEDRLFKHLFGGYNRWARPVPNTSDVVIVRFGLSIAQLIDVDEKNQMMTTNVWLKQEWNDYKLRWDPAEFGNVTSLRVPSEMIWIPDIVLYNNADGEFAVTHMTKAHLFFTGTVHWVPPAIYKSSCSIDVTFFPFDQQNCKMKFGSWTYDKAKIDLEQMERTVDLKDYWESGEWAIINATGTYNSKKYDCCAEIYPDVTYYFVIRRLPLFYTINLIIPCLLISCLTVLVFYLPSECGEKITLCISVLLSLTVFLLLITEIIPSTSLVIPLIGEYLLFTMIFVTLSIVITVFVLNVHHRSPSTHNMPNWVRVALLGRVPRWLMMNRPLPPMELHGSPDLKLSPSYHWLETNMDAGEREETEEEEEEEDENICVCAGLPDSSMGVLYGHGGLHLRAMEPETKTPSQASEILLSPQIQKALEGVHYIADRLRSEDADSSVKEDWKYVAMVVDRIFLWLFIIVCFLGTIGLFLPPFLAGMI
T3 sequence (P12390 25-500): as the sequence (P12390 25-500) above
T3 sequence (P04757 26-499): as the sequence (P04757 26-499) above
T2 sequence (P12389 28-511): as the sequence (P12389 28-511) above
T2 sequence (P12392 21-495): as the sequence (P12392 21-495) above

SMILES: CCCCC#Cc1cncc(OC[C@@H]2CCCN2C)c1 [Ligand 12, 5-(1-Hexynyl)-3-(1-methyl-2(S)-pyrrolidinylmethoxy)pyridine]
- Ki (α2β2 nAChR subtype; Table 5, rat nAChR subtypes, read-out: Ki α2β2): 0.0134 µM
- Ki (α2β4 nAChR subtype; Table 5, rat nAChR subtypes, read-out: Ki α2β4): 1.72 µM
- Ki (α3β2 nAChR subtype; Table 5, rat nAChR subtypes, read-out: Ki α3β2): 0.0203 µM
- Ki (α3β4 nAChR subtype; Table 5, rat nAChR subtypes, read-out: Ki α3β4): 9.56 µM
- Ki (α4β2 nAChR subtype; Table 5, rat nAChR subtypes, read-out: Ki α4β2): 0.00261 µM
- Ki (α4β4 nAChR subtype; [2]): 1.41 µM
- Ki ([1]; Table 5, *Rat forebrain, mainly α4β2, read-out: Ki α4β2*): 0.00681 µM

SMILES: OC1C2CCC(N2)C1c1ccc(Cl)nc1 (single isomer, unassigned) [Ligand 3, 2-exo-(2-Chloro-5-pyridyl)-3-endo-hydroxyl-7-azabicyclo[2.2.1]heptane]
- Ki (α2β2 nAChR subtype; [3]): 0.00249 µM
- Ki (α2β4 nAChR subtype; [4]): 0.0153 µM
- Ki (α3β2 nAChR subtype; [5]): 0.00731 µM
- Ki (α3β4 nAChR subtype; [6]): 0.0391 µM
- Ki (α4β2 nAChR subtype; [7]): 0.00292 µM
- Ki (α4β4 nAChR subtype; [8]): 0.0112 µM
- Ki [1, 9]: 0.00479 µM

SMILES: OC1CC2CC(c3ccc(Cl)nc3)C1N2 (stereo not drawn) [Ligand 8, 2-exo-(2-Chloro-5-pyridyl)-6-exo-hydroxyl-7-azabicyclo[2.2.1]heptane]
- Ki (α2β2 nAChR subtype; [3]): 0.0063 µM
- Ki (α2β4 nAChR subtype; [4]): 0.0397 µM
- Ki (α3β2 nAChR subtype; [5]): 0.00888 µM
- Ki (α3β4 nAChR subtype; [6]): 0.144 µM
- Ki (α4β2 nAChR subtype; [7]): 0.0126 µM
- Ki (α4β4 nAChR subtype; [8]): 0.0456 µM
- Ki [1, 9]: 0.0229 µM

SMILES: OC1CC2CC(c3ccc(Cl)nc3)C1N2 (racemic) [Ligand 9]
- Ki (α2β2 nAChR subtype; read-out: Ki α2β2): 0.00153 µM
- Ki (α2β4 nAChR subtype; read-out: Ki α2β4): 0.00585 µM
- Ki (α3β2 nAChR subtype; read-out: Ki α3β2): 0.00136 µM
- Ki (α3β4 nAChR subtype; read-out: Ki α3β4): 0.0273 µM
- Ki (α4β2 nAChR subtype; read-out: Ki α4β2): 0.00092 µM
- Ki (α4β4 nAChR subtype; read-out: Ki α4β4): 0.00557 µM

SMILES: O[C@H]1[C@H](c2ccc(Cl)nc2)[C@H]2CC[C@@H]1N2 (relative stereo) [Ligand 3]
- Ki (α2β2 nAChR subtype; Ki α2β2): 0.0025 µM
- Ki (α2β4 nAChR subtype; Ki α2β4): 0.0153 µM
- Ki (α3β2 nAChR subtype; Ki α3β2): 0.0073 µM
- Ki (α3β4 nAChR subtype; Ki α3β4): 0.0391 µM
- Ki (α4β2 nAChR subtype; Ki α4β2): 0.0029 µM
- Ki (α4β4 nAChR subtype; Ki α4β4): 0.0112 µM

SMILES: CN1CCC[C@H]1COc1cncc(CCCCCCO)c1 [Ligand 19]
- Ki (α2β2 nAChR subtype): 0.00333 µM
- Ki (α2β4 nAChR subtype): 1.15 µM
- Ki (α3β2 nAChR subtype): 0.0134 µM
- Ki (α3β4 nAChR subtype; Ki α3β4, Table 1, mean of 3 (1, 2: 3 to 6) independent measurements): 20 µM
- Ki (α4β2 nAChR subtype; Ki α4β2, Table 1, mean of 3 (1, 2: 3 to 6) independent measurements): 0.00075 µM
- Ki (α4β4 nAChR subtype): 0.968 µM
- Ki [1]: 0.00539 µM

SMILES: Clc1ccc2c(n1)CCC21CC2CCC1N2 (stereo not drawn) [Ligand 58b]
- Ki (α2β2 nAChR subtype; [3]): 2.46 µM
- Ki (α2β4 nAChR subtype; [4]): 7.09 µM
- Ki (α2β4 nAChR subtype; [10]): 7.18 µM
- Ki (α3β2 nAChR subtype; [5]): 3.66 µM
- Ki (α3β2 nAChR subtype; [11]): 4.07 µM
- Ki (α3β4 nAChR subtype; [6]): 14.9 µM
- Ki (α3β4 nAChR subtype; [12]): 13.8 µM
- Ki (α4β2 nAChR subtype; [7]): 5.05 µM
- Ki (α4β2 nAChR subtype; [13]): 6.99 µM
- Ki (α4β4 nAChR subtype; [14]): 9.46 µM
- Ki (α4β4 nAChR subtype; [2]): 9.56 µM
- Ki [1, 9]: 12.1 µM

SMILES: OC1C2CCC(N2)C1c1ccc(Cl)nc1 (single isomer, unassigned) [Ligand 2]
- Ki (α2β2 nAChR subtype; [3]): 0.814 µM
- Ki (α2β4 nAChR subtype; [4]): 0.617 µM
- Ki (α3β2 nAChR subtype; [5]): 1.13 µM
- Ki (α3β4 nAChR subtype; [6]): 1.17 µM
- Ki (α4β2 nAChR subtype; [7]): 2.37 µM
- Ki (α4β4 nAChR subtype; [8]): 0.515 µM
- Ki [1, 9]: 2.06 µM

SMILES: Clc1cc2c(cn1)C1C3CCC(N3)C1CC2 (stereo not drawn) [Ligand 37a]
- Ki (α2β2 nAChR subtype; [3]): 0.294 µM
- Ki (α2β2 nAChR subtype; Table 3, mean ± SEM of 3 (nicotine, 1: 3 to 6) independent measurements, read-out: Ki α2β2): 0.29 µM
- Ki (α2β4 nAChR subtype; [4]): 0.693 µM
- Ki (α2β4 nAChR subtype; [10]): 0.717 µM
- Ki (α3β2 nAChR subtype; [5]): 0.345 µM
- Ki (α3β2 nAChR subtype; [11]): 0.354 µM
- Ki (α3β4 nAChR subtype; [6]): 2.17 µM
- Ki (α3β4 nAChR subtype; [12]): 2.28 µM
- Ki (α4β2 nAChR subtype; [7]): 0.0674 µM
- Ki (α4β2 nAChR subtype; [13]): 0.073 µM
- Ki (α4β4 nAChR subtype; [8]): 0.672 µM
- Ki (α4β4 nAChR subtype; [14]): 0.637 µM
- Ki [1, 9]: 0.339 µM

SMILES: CN1CCC[C@H]1COc1cccnc1 [Ligand 8, 3-(1-Methyl-2(S)-pyrrolidinylmethoxy)pyridine, reference compound]
- Ki (α2β2 nAChR subtype; [3]): 0.00107 µM
- Ki (α2β2 nAChR subtype; Ki α2β2, Table 6, [3H]-EB 0.099 nM, 0.091 nM, ligand 0.00197-100 μM, n = 1): 0.00107 µM
- Ki (α2β4 nAChR subtype; [4]): 0.209 µM
- Ki (α2β4 nAChR subtype; Ki α2β4, Table 6, [3H]-EB 0.099 nM, 0.091 nM, ligand 0.00197-100 μM, n = 1): 0.209 µM
- Ki (α3β2 nAChR subtype; [5]): 0.00904 µM
- Ki (α3β2 nAChR subtype; Ki α3β2, Table 6, [3H]-EB 0.099 nM, 0.091 nM, ligand 0.00197-100 μM, n = 1): 0.00904 µM
- Ki (α3β4 nAChR subtype; [6]): 0.835 µM
- Ki (α3β4 nAChR subtype; Ki α3β4, Table 6, [3H]-EB 0.099 nM, 0.091 nM, ligand 0.00197-100 μM, n = 1): 0.835 µM
- Ki (α4β2 nAChR subtype; [7]): 0.0014 µM
- Ki (α4β2 nAChR subtype; Ki α4β2, Table 6, [3H]-EB 0.099 nM, 0.091 nM, ligand 0.00197-100 μM, n = 1): 0.0014 µM
- Ki (α4β4 nAChR subtype; [8]): 0.205 µM
- Ki (α4β4 nAChR subtype; Ki α4β4, Table 6, [3H]-EB 0.099 nM, 0.091 nM, ligand 0.00197-100 μM, n = 1): 0.205 µM
- Ki ([1]; Ki α4β2**, Table 6, **Forebrain mainly α4β2, [3H]-EB 0.099 nM, 0.091 nM, n = 1): 0.00515 µM
- Ki [1, 9]: 0.00515 µM

SMILES: CCCCCc1cncc(C2CC3CCC2N3)c1 (stereo not drawn) [ZW-95]
- Ki (α2β2 nAChR subtype; [3]): 0.000323 µM
- Ki (α2β4 nAChR subtype; [4]): 0.0249 µM
- Ki (α3β2 nAChR subtype; [5]): 0.000165 µM
- Ki (α3β4 nAChR subtype; [6]): 0.122 µM
- Ki (α4β2 nAChR subtype; [7]): 0.000151 µM
- Ki (α4β4 nAChR subtype; [8]): 0.00791 µM
- Ki [1, 9]: 0.000314 µM
